Data as given in patent US12077503B2, “Substituted cyclic amides and their use as herbicides” (FMC CORPORATION, priority 2015, dated 2024).

What was measured:
Type in all cases: in vivo
[1] = system: giant foxtail (Setaria faberi); experiment: Test G Post-Emergence Protocol; settings: Setaria faberi, post-emergence, 312 h
In short: (§1)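 Eight days post-sowing, plants received a spray of test compound (acetone/water 50:50, 0.5% Tween 20) at 15.625, 62.5 or 250 g/ha. Glasshouse regime thereafter: 24/16 °C, 14 h light, 65% humidity. Assessment after 13 days on a 0–100 damage scale.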

[2] = system: redroot pigweed (Amaranthus retroflexus); experiment: Test G Post-Emergence Protocol; settings: Amaranthus retroflexus, post-emergence, 312 h
In short: as §1

[3] = system: velvetleaf (Abutilon theophrasti); experiment: Test G Post-Emergence Protocol; settings: Abutilon theophrasti, post-emergence, 312 h
In short: as §1

corn (Zea mays) [4] = experiment: Test G Post-Emergence Protocol; settings: Zea mays, post-emergence, 312 h
In short: as §1

[5] = system: ivy-leaved morning glory (Ipomoea hederacea); experiment: Test G Post-Emergence Protocol; settings: Ipomoea, post-emergence, 312 h
In short: as §1

[6] = system: barnyardgrass (Echinochloa crus-galli); experiment: Test G Post-Emergence Protocol; settings: Echinochloa crus-galli, post-emergence, 312 h
In short: as §1

[7] = system: giant foxtail (Setaria faberi); experiment: Test G Pre-Emergence Protocol; settings: Setaria faberi, pre-emergence, 312 h, evaluated after 13 days
In short: (§2)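 Pots of seeds in standard soil were grown for one day in a glasshouse (24/16 °C day/night, 14 h light, 65% humidity), then sprayed with compound in acetone/water 50:50 with 0.5% Tween 20 at 15.625, 62.5 or 250 g/ha. Damage was scored after 13 days on a 0 (none) to 100 (total) scale.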

[8] = system: redroot pigweed (Amaranthus retroflexus); experiment: Test G Pre-Emergence Protocol; settings: Amaranthus retroflexus, pre-emergence, 312 h, evaluated after 13 days
In short: as §2

[9] = system: velvetleaf (Abutilon theophrasti); experiment: Test G Pre-Emergence Protocol; settings: Abutilon theophrasti, pre-emergence, 312 h, evaluated after 13 days
In short: as §2

corn (Zea mays) [10] = experiment: Test G Pre-Emergence Protocol; settings: Zea mays, pre-emergence, 312 h, evaluated after 13 days
In short: as §2

[11] = system: ivy-leaved morning glory (Ipomoea hederacea); experiment: Test G Pre-Emergence Protocol; settings: Ipomoea, pre-emergence, 312 h, evaluated after 13 days
In short: as §2

[12] = system: barnyardgrass (Echinochloa crus-galli); experiment: Test G Pre-Emergence Protocol; settings: Echinochloa crus-galli, pre-emergence, 312 h, evaluated after 13 days
In short: as §2

CN1C[C@@H](c2ccc(C(F)(F)F)cc2)[C@H](C(=O)Nc2ccc(F)c(F)c2Cl)C1=O (racemic) [Compound 1627]
20%: pest or weed control at 15.625 g/ha ([2]; 15.625 g ai/ha, evaluated after 13 days (100=total damage to plant; 0=no damage to plant), read-out: Pigweed, Redroot damage rating) | pest or weed control at 62.5 g/ha ([3]; 62.5 g ai/ha, evaluated after 13 days, read-out: Velvetleaf damage rating (100=total damage to plant; 0=no damage to plant)) | pest or weed control at 15.625 g/ha ([6]; 15.625 g ai/ha, evaluated after 13 days (100=total damage to plant; 0=no damage to plant), read-out: Barnyardgrass damage rating) | pest or weed control at 62.5 g/ha ([9]; 62.5 g ai/ha, 100=total damage to plant, 0=no damage to plant, read-out: plant damage rating, Velvetleaf) | pest or weed control at 250 g/ha ([9]; 250 g ai/ha, read-out: Velvetleaf damage rating (100=total damage to plant; 0=no damage to plant))
30%: plant injury at 62.5 g/ha (corn (Zea mays) [4]; 62.5 g ai/ha, evaluated after 13 days, read-out: Corn damage rating (100=total damage to plant; 0=no damage to plant))
50%: pest or weed control at 62.5 g/ha ([8]; 62.5 g ai/ha, 100=total damage to plant, 0=no damage to plant, read-out: plant damage rating, Pigweed, Redroot)
60%: pest or weed control at 62.5 g/ha ([2]; 62.5 g ai/ha, evaluated after 13 days, read-out: Pigweed, Redroot damage rating (100=total damage to plant; 0=no damage to plant)) | pest or weed control at 15.625 g/ha ([5]; 15.625 g ai/ha, evaluated after 13 days (100=total damage to plant; 0=no damage to plant), read-out: Morningglory, Ivy-leaved damage rating) | pest or weed control at 250 g/ha ([8]; 250 g ai/ha, read-out: Pigweed, Redroot damage rating (100=total damage to plant; 0=no damage to plant))
80%: pest or weed control at 62.5 g/ha ([1]; 62.5 g ai/ha, evaluated after 13 days, read-out: Foxtail, Giant damage rating (100=total damage to plant; 0=no damage to plant)) | pest or weed control at 250 g/ha ([1]; 250 g ai/ha, evaluated after 13 days, read-out: damage to plant, Foxtail, Giant (100=total damage to plant; 0=no damage to plant)) | pest or weed control at 250 g/ha ([6]; 250 g ai/ha, evaluated after 13 days, read-out: damage to plant, Barnyardgrass (100=total damage to plant; 0=no damage to plant)) | pest or weed control at 62.5 g/ha ([7]; 62.5 g ai/ha, 100=total damage to plant, 0=no damage to plant, read-out: plant damage rating, Foxtail, Giant) | pest or weed control at 250 g/ha ([7]; 250 g ai/ha, read-out: Foxtail, Giant damage rating (100=total damage to plant; 0=no damage to plant)) | pest or weed control at 250 g/ha ([12]; 250 g ai/ha, read-out: Barnyardgrass damage rating (100=total damage to plant; 0=no damage to plant))
0%: pest or weed control at 15.625 g/ha ([3]; 15.625 g ai/ha, evaluated after 13 days (100=total damage to plant; 0=no damage to plant), read-out: Velvetleaf damage rating) | plant injury at 15.625 g/ha (corn (Zea mays) [4]; 15.625 g ai/ha, evaluated after 13 days (100=total damage to plant; 0=no damage to plant), read-out: Corn damage rating) | pest or weed control at 15.625 g/ha ([8]; 15.625 g ai/ha, read-out: Pigweed, Redroot damage rating (100=total damage to plant; 0=no damage to plant)) | pest or weed control at 15.625 g/ha ([9]; 15.625 g ai/ha, read-out: Velvetleaf damage rating (100=total damage to plant; 0=no damage to plant)) | plant injury at 15.625 g/ha (corn (Zea mays) [10]; 15.625 g ai/ha, read-out: Corn damage rating (100=total damage to plant; 0=no damage to plant)) | pest or weed control at 15.625 g/ha ([11]; 15.625 g ai/ha, read-out: Morning-glory, Ivy-leaved damage rating (100=total damage to plant; 0=no damage to plant)) | pest or weed control at 62.5 g/ha ([11]; 62.5 g ai/ha, 100=total damage to plant, 0=no damage to plant, read-out: plant damage rating, Morningglory, Ivy-leaved) | pest or weed control at 15.625 g/ha ([12]; 15.625 g ai/ha, read-out: Barnyard grass damage rating (100=total damage to plant; 0=no damage to plant))
40%: pest or weed control at 250 g/ha ([3]; 250 g ai/ha, evaluated after 13 days, read-out: damage to plant, Velvetleaf (100=total damage to plant; 0=no damage to plant)) | pest or weed control at 62.5 g/ha ([12]; 62.5 g ai/ha, 100=total damage to plant, 0=no damage to plant, read-out: plant damage rating, Barnyardgrass)
70%: pest or weed control at 15.625 g/ha ([1]; 15.625 g ai/ha, evaluated after 13 days (100=total damage to plant; 0=no damage to plant), read-out: Foxtail, Giant damage rating) | pest or weed control at 250 g/ha ([2]; 250 g ai/ha, evaluated after 13 days, read-out: damage to plant, Pigweed, Redroot (100=total damage to plant; 0=no damage to plant)) | plant injury at 250 g/ha (corn (Zea mays) [4]; 250 g ai/ha, evaluated after 13 days, read-out: damage to plant, Corn (100=total damage to plant; 0=no damage to plant)) | pest or weed control at 62.5 g/ha ([5]; 62.5 g ai/ha, evaluated after 13 days, read-out: Morningglory, Ivy-leaved damage rating (100=total damage to plant; 0=no damage to plant)) | pest or weed control at 250 g/ha ([5]; 250 g ai/ha, evaluated after 13 days, read-out: damage to plant, Morningglory, Ivy-leaved (100=total damage to plant; 0=no damage to plant)) | pest or weed control at 62.5 g/ha ([6]; 62.5 g ai/ha, evaluated after 13 days, read-out: Barnyardgrass damage rating (100=total damage to plant; 0=no damage to plant)) | pest or weed control at 15.625 g/ha ([7]; 15.625 g ai/ha, read-out: Foxtail, Giant damage rating (100=total damage to plant; 0=no damage to plant)) | plant injury at 250 g/ha (corn (Zea mays) [10]; 250 g ai/ha, read-out: Corn damage rating (100=total damage to plant; 0=no damage to plant))
10%: plant injury at 62.5 g/ha (corn (Zea mays) [10]; 62.5 g ai/ha, 100=total damage to plant, 0=no damage to plant, read-out: plant damage rating, Corn) | pest or weed control at 250 g/ha ([11]; 250 g ai/ha, read-out: Morningglory, Ivy-leaved damage rating (100=total damage to plant; 0=no damage to plant))
